Assay: in vitro
Conditions: human, hela cells, % viability

Compared with O=C(NCCCn1ccnc1)N1CCN(Cc2ccc(Cl)cc2)CC1 [CBK305894], Cc1nn(CC(=O)N2CCN(Cc3ccccn3)CC2)c(C)c1Cl [CBK305978] is lower in viability at 28.5 h, 10 µM: 101% for the first, 93.8% for the second.

First: O=C(CN1CCCC1c1cccs1)Nc1cccc(C(=O)NC2CC2)c1 (stereo not shown) [CBK305895]
Second: CC(=O)Nc1cccc(C(=O)OCC(=O)N2CCC(C)CC2)c1 [CBK305905]
The viability at 28.5 h, 10 µM of the first is higher: 98.5% for the first, 98.3% for the second.

Compared with CC1CCc2c(sc3ncnc(SCC(=O)N(C)CCC#N)c23)C1 (stereo not shown) [CBK305896], CC1CCc2c(sc3ncnc(SCC(=O)N(C)C)c23)C1 (stereo not shown) [CBK305946] is lower in viability at 28.5 h, 10 µM: 106% for the first, 92.9% for the second.

Going from CN(Cc1ccccc1N1CCCC1)C(=O)Cc1cn2ccsc2n1 [CBK305897] to N#CCCn1cc(C(=O)N2CCCCC2)c(-c2ccccc2)n1 [CBK305931], the viability at 28.5 h, 10 µM rises from 78% to 100%.

First: CN(CC(=O)NCc1ccc(Cl)cc1)S(=O)(=O)Cc1ccc(C#N)cc1 [CBK305899]
Second: COc1ccccc1CN(C)C(=O)Nc1ccc(S(N)(=O)=O)cc1 [CBK306026]
The viability at 28.5 h, 10 µM of the first is higher: 92.3% for the first, 90.4% for the second.

First: O=C(Cn1nnc2ccccc2c1=O)N1CCCC(C(F)(F)F)C1 (stereo not shown) [CBK305900]
Second: CC1CCCCC1NC(=O)NC(=O)Cn1nnc2ccccc2c1=O (stereo not shown) [CBK306046]
The viability at 28.5 h, 10 µM of the first is lower: 80.5% for the first, 90.2% for the second.

Going from CCC1CCCCN1Cc1nc2c(c(=O)n(C)c(=O)n2C)n1CCOC (stereo not shown) [CBK305912] to CCOCCn1c(CN2CCCCC2)nc2c1c(=O)n(C)c(=O)n2C [CBK306028], the viability at 28.5 h, 10 µM falls from 104% to 85.8%.

Going from CCc1ncc2c(n1)CN(Cc1cc(=O)n3cccc(C)c3n1)CC2 [CBK305914] to Cc1cccn2c(=O)cc(CN3CCC(c4ccn[nH]4)CC3)nc12 [CBK305951], the viability at 28.5 h, 10 µM rises from 84.6% to 93.2%.

Going from O=C(NCCN1CCN(C(=O)Nc2ccccc2)CC1)C1CCCC1 [CBK305915] to O=C(CCNS(=O)(=O)c1ccccc1Cl)N1CCN(C(=O)C2CC2)CC1 [CBK306025], the viability at 28.5 h, 10 µM rises from 95.8% to 113%.

Going from CN(C(=O)c1cc[nH]n1)C1CCN(c2ncnc3ccccc23)CC1 [CBK305916] to CC(Sc1nc2ccccc2c(=O)n1C1CC1)C(=O)N1CCOCC1 (stereo not shown) [CBK306045], the viability at 28.5 h, 10 µM rises from 79% to 79.5%.

First: Cc1cc(C)n(C(C)C(=O)N2CCC(Nc3cccnc3)CC2)n1 (stereo not shown) [CBK305917]
Second: Cc1cccc(CN2CCC(NC(=O)c3cn(C(C)(C)C)nn3)CC2)c1 [CBK305927]
The viability at 28.5 h, 10 µM of the first is higher: 94.2% for the first, 92% for the second.

First: Cc1ccc(Cc2cnc(NC(=O)C3CNC(=O)N3)s2)cc1F (stereo not shown) [CBK305919]
Second: CNC(=O)CSc1nc2cc(Cl)ccc2c(=O)n1CC1CCCO1 (stereo not shown) [CBK305937]
The viability at 28.5 h, 10 µM of the first is higher: 97.8% for the first, 86.9% for the second.

Going from Cc1cc(C)n(CC2CCCN2C(=O)CCCc2ccccn2)n1 (stereo not shown) [CBK305920] to CC1CCCN(CC(C)NC(=O)Cn2cnc3ccc(F)cc3c2=O)C1 (stereo not shown) [CBK305953], the viability at 28.5 h, 10 µM falls from 105% to 91.5%.

Going from CCn1cc(NS(=O)(=O)c2ccc(N3CCCC3=O)cc2)cn1 [CBK305922] to CNC(=O)c1cc(S(=O)(=O)N(C2CC2)C2CCc3ccccc32)cn1C (stereo not shown) [CBK305988], the viability at 28.5 h, 10 µM rises from 85.3% to 106%.

First: CCOc1ccc(Cl)cc1CCNC(=O)NC(C)c1nnnn1C (stereo not shown) [CBK305923]
Second: CCc1nc(C(C)NC(=O)COc2nn(C)c3nc(C)cc(C)c23)cs1 (stereo not shown) [CBK306024]
The viability at 28.5 h, 10 µM of the first is lower: 89.2% for the first, 93.3% for the second.

First: O=C(NS(=O)(=O)c1cccc(-c2nnco2)c1)C1CC1C1CCCCC1 (stereo not shown) [CBK305924]
Second: CCOCCCNC(=O)c1cccc(S(=O)(=O)N2CCCC2)c1 [CBK305934]
The viability at 28.5 h, 10 µM of the first is lower: 90.8% for the first, 104% for the second.

First: Cc1nc(CNC(=O)NC2CCCN(c3ccn(C)n3)C2=O)c(C)s1 (stereo not shown) [CBK305926]
Second: Cc1nn(C)c(C)c1NC(=O)COc1ccc(C#N)cc1 [CBK306011]
The viability at 28.5 h, 10 µM of the first is higher: 95% for the first, 87.5% for the second.

First: Cc1ccc(C(=O)NCC(c2ccccc2Cl)N2CCOCC2)c(=O)[nH]1 (stereo not shown) [CBK305928]
Second: Cc1ccc(OCCC(=O)NCC(c2cccs2)N2CCOCC2)cc1 (stereo not shown) [CBK305976]
The viability at 28.5 h, 10 µM of the first is higher: 99.3% for the first, 90.9% for the second.

First: CCCn1c(SCC(=O)N2CCOCC2)nc2ccc(Br)cc2c1=O [CBK305929]
Second: CCCSc1nc2cc(C(=O)OC)ccc2c(=O)n1CC1CCCO1 (stereo not shown) [CBK306031]
The viability at 28.5 h, 10 µM of the first is lower: 83% for the first, 91% for the second.

Going from CN(C)C(=O)CSc1nc2cc(Cl)ccc2c(=O)n1CC1CCCO1 (stereo not shown) [CBK305932] to CC(Sc1nc2cc(Cl)ccc2c(=O)n1CC1CCCO1)C(N)=O (stereo not shown) [CBK305935], the viability at 28.5 h, 10 µM rises from 97.3% to 99.6%.

Going from Cc1ccc(-c2nn(CCC#N)cc2C(=O)N2CCOCC2)cc1 [CBK305939] to COc1cccc(-c2nn(CCC#N)cc2C(=O)N2CCCCC2)c1 [CBK305942], the viability at 28.5 h, 10 µM rises from 96.2% to 101%.

First: Cc1nc(-c2cccnc2)[nH]c(=O)c1CC(=O)N1CCSCC1 [CBK305944]
Second: COc1cc(CC(=O)N2CCc3c(sc4ncnc(N)c34)C2)ccc1C [CBK306013]
The viability at 28.5 h, 10 µM of the first is lower: 90.7% for the first, 103% for the second.

First: CC(C(=O)Nc1ccc(S(N)(=O)=O)cc1)N(C)Cc1cccs1 (stereo not shown) [CBK305945]
Second: COc1ccccc1CN(C)S(=O)(=O)c1ccc(S(N)(=O)=O)cc1 [CBK306008]
The viability at 28.5 h, 10 µM of the first is lower: 88.8% for the first, 113% for the second.

Going from Cc1nn(C)c2ncc(S(=O)(=O)NC(C)c3cccc(F)c3)cc12 (stereo not shown) [CBK305948] to CN(Cc1cccc(C#N)c1)Cc1nc2c(cnn2C)c(=O)[nH]1 [CBK305973], the viability at 28.5 h, 10 µM rises from 94.9% to 109%.

Compared with CC(=O)N1CCc2cc(Nc3ncnc4c3cnn4CCC#N)ccc21 [CBK305950], COCc1cccc(Nc2ncnc3c2cnn3CCC#N)c1 [CBK305983] is lower in viability at 28.5 h, 10 µM: 101% for the first, 83.2% for the second.

Going from CCOC(=O)C(Cc1ccccc1)NC(=O)c1ccc(C)nc1 (stereo not shown) [CBK305952] to CCOC(=O)C(CNC(=O)c1c(CC)noc1C)Cc1ccccc1 (stereo not shown) [CBK305961], the viability at 28.5 h, 10 µM rises from 89.6% to 90.8%.

Compared with CCCN1CCC(NC(=O)c2cccc(S(N)(=O)=O)c2)CC1 [CBK305956], C#CCNS(=O)(=O)c1cccc(C(=O)NCC2CCCN(C(C)C)C2)c1 (stereo not shown) [CBK305981] is higher in viability at 28.5 h, 10 µM: 90.6% for the first, 109% for the second.

First: CCN(C)Cc1cccc(CNc2ncnc3c2cnn3CCC#N)c1 [CBK305959]
Second: CCOc1ncccc1CNc1ncnc2c1cnn2CCO [CBK305964]
The viability at 28.5 h, 10 µM of the first is lower: 92.2% for the first, 97% for the second.

Compared with CCc1noc(CN2CCC(c3c[nH]c4ccc(OC)cc34)CC2)n1 [CBK305960], COc1ccc2[nH]cc(C3CCN(Cc4nc(C)no4)CC3)c2c1 [CBK305982] is higher in viability at 28.5 h, 10 µM: 84.1% for the first, 94.6% for the second.

Compared with CCCc1c(C(=O)N2CCN(c3cnccn3)CC2)cnn1C [CBK305962], COc1ccnc(N2CCN(C(=O)c3cc(C)nn3C)CC2)n1 [CBK305967] is lower in viability at 28.5 h, 10 µM: 99% for the first, 83.7% for the second.

First: Cc1nc(S(=O)(=O)N2CCC(C(=O)N3CCCCC3)CC2)cn1C [CBK305963]
Second: Cc1cc(N2CCCC(C(=O)N3CCOCC3)C2)nc(N)n1 (stereo not shown) [CBK305985]
The viability at 28.5 h, 10 µM of the first is higher: 89.4% for the first, 76.4% for the second.

Going from Cc1cc(N(C)CCOc2ccccc2F)nc(N)n1 [CBK305969] to CCC(NC1CCc2nc(C)cn2C1)c1ccccc1O (stereo not shown) [CBK306012], the viability at 28.5 h, 10 µM rises from 79.6% to 85.8%.

Going from O=C(c1ccc(NC2CC2)nc1)N1CCC(CN2CCOCC2)CC1 [CBK305970] to Cc1ncc(CN(C)C(=O)Nc2cccc(C(=O)N3CCOCC3)c2)s1 [CBK305984], the viability at 28.5 h, 10 µM rises from 87.6% to 92.2%.

Going from CCOC(=O)C(CNC(=O)CNC(=O)c1ccoc1)Cc1ccccc1 (stereo not shown) [CBK305971] to CC(C)NC(=O)Nc1ccc(C(=O)N(CCC#N)Cc2ccco2)cc1 [CBK305999], the viability at 28.5 h, 10 µM falls from 92.4% to 82.3%.

First: CC(NC(=O)Cc1cccc(F)c1)c1nnc2n1CCCCC2 (stereo not shown) [CBK305975]
Second: CCc1nnc(SC(C)C(=O)N2CCCc3ccccc32)[nH]1 (stereo not shown) [CBK306009]
The viability at 28.5 h, 10 µM of the first is higher: 85.8% for the first, 84.1% for the second.

Compared with OCCn1ncc2c(NCc3cccnc3-n3cccn3)ncnc21 [CBK305977], COc1ncccc1CNc1ncnc2c1cnn2CCO [CBK305980] is higher in viability at 28.5 h, 10 µM: 90.6% for the first, 116% for the second.

Compared with COC(=O)c1cccc(OCCn2c(=O)c(C#N)cn(C3CC3)c2=O)c1 [CBK305990], CC1CCC(C(N)=O)CN1C(=O)c1ccc(Oc2cccc(Br)c2)nc1 (stereo not shown) [CBK306005] is higher in viability at 28.5 h, 10 µM: 98.6% for the first, 106% for the second.

Going from CC(NS(=O)(=O)c1ccccc1Cl)C(=O)N1CCCC1 (stereo not shown) [CBK305994] to Cc1oc(NC(=O)CN2CCN(c3ccccc3)CC2)c(C#N)c1C [CBK306044], the viability at 28.5 h, 10 µM falls from 93.2% to 81.7%.

First: COC(=O)c1ccc(N2CCN(Cc3nc(C)no3)C(C)C2)cc1 (stereo not shown) [CBK305998]
Second: CC(C)NC(=O)CN(C)Cc1nc(-c2cccc(C(F)(F)F)c2)no1 [CBK306036]
The viability at 28.5 h, 10 µM of the first is higher: 92.3% for the first, 72.2% for the second.

First: CC1CCc2c(sc3ncnc(OCC(=O)N4CCOCC4)c23)C1 (stereo not shown) [CBK306000]
Second: N#Cc1ccnc(SCC(=O)Nc2ccc(CN3CCOCC3)cc2)c1 [CBK306010]
The viability at 28.5 h, 10 µM of the first is lower: 95.9% for the first, 103% for the second.

Going from Cc1cc(Br)c(O)c(C(=O)N(C)CC(=O)Nc2cc(C)on2)c1 [CBK306002] to Cc1cc(NC(=O)CS(=O)(=O)c2cccc(C(F)(F)F)c2)on1 [CBK306015], the viability at 28.5 h, 10 µM falls from 94.8% to 85.5%.

First: Cc1ccnc(NCC2CCN(Cc3cc(=O)n4ccccc4n3)C2)c1 (stereo not shown) [CBK306003]
Second: CN(C(=O)C1(NC(N)=O)CC1)c1nc2c(s1)CC(c1ccccc1)CC2 (stereo not shown) [CBK306022]
The viability at 28.5 h, 10 µM of the first is higher: 97.3% for the first, 93% for the second.

Going from CN(CCN(C)C(=O)c1cc2sccc2[nH]1)CC(F)F [CBK306014] to CCN(CC(=O)NC(C)C)Cc1nc(-c2cccc(C(F)(F)F)c2)no1 [CBK306039], the viability at 28.5 h, 10 µM falls from 103% to 88.6%.

Compared with CC(=O)Nc1ccc(CNc2ncccc2OC(F)F)cc1 [CBK306016], COC(=O)CCn1c(=O)c2c(nc3oc(C(C)(C)C)cn32)n(C)c1=O [CBK306034] is lower in viability at 28.5 h, 10 µM: 95% for the first, 87.7% for the second.

First: CCn1c(CN2CC(C)CC(C)C2)nc2c1c(=O)n(C)c(=O)n2C (stereo not shown) [CBK306030]
Second: CCCn1c(C)c(C)n2c3c(=O)n(CCC(=O)OC)c(=O)n(C)c3nc12 [CBK306048]
The viability at 28.5 h, 10 µM of the first is lower: 84.4% for the first, 98.4% for the second.

Molecule CCn1c(C)cc(C(=O)CSc2nnc(N3CCCC3)n2C2CC2)c1C [CBK306035] has a viability at 28.5 h, 10 µM of 85.5%.

Source: paper PMC12040169 (PLOS Biology, 2025)
